This is an account of results in article PMC11602622, “Evolution of queen pheromone receptor tuning in four honeybee species (Hymenoptera, Apidae, Apis)” (iScience, 2024).

Molecules are shown by their SMILES. Substitutions are numbered along the chain they refer to.

For one experiment, the system named is T1, AdorOR11.
T1 construct: gene OR11; full-length ORF, Drosophila codon-optimized synthetic gene (pUAST.attB, locus 51C); expressed in Drosophila at1 OSNs in place of DmelOR67d, with endogenous fly Orco and GCaMP6m; same length as the other OR11
In words: transcuticular GCaMP6m calcium imaging of Drosophila antenna, dose-response. Type of experiment: cell-based, Apis dorsata. Conditions: agonist; airborne odorant, unit is dose loaded on filter paper, not a concentration; 1 s stimulus; solvent 2-propanol.

The next experiment has as its target T2, AmelOR11 (Apis mellifera, UniProt A0A7M6UWX0).
T2 construct: gene Or11; full-length ORF, Drosophila codon-optimized synthetic gene (pUAST.attB, locus 51C); expressed in Drosophila at1 OSNs in place of DmelOR67d, with endogenous fly Orco and GCaMP6m; same length as the other OR11
T2 sequence (A0A7M6UWX0 1-394): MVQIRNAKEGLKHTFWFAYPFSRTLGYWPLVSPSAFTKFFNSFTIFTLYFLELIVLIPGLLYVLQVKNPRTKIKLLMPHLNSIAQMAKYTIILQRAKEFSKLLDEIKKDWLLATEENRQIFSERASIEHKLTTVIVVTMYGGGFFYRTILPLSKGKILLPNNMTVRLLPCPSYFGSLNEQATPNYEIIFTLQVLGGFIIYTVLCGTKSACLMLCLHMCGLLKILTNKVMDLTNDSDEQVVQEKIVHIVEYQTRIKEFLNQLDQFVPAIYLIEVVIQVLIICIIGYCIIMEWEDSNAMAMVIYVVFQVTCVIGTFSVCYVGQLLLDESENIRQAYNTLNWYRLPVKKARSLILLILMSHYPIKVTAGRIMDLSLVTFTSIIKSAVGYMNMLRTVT
The experiment is described as above. The class given is cell-based. Conditions: agonist; airborne odorant, unit is dose loaded on filter paper, not a concentration; 1 s stimulus; solvent 2-propanol.

Experiment [1] addresses T3, AcerOR11 (Apis cerana, UniProt A0A3G2FPT9).
T3 construct: full-length ORF, Drosophila codon-optimized synthetic gene (pUAST.attB, locus 51C); expressed in Drosophila at1 OSNs in place of DmelOR67d, with endogenous fly Orco and GCaMP6m; same length as the other OR11
T3 sequence (A0A3G2FPT9 1-394): T2 sequence (A0A7M6UWX0 1-394) with F36V, T47I, F50L, E52Q, P69A, L112I, V228I, M229V, V239I, K345N
Described as above. The class given is cell-based. Conditions: agonist; airborne odorant, unit is dose loaded on filter paper, not a concentration; 1 s stimulus; solvent 2-propanol.

The subject of another experiment is T4, AflorOR11.
T4 construct: gene OR11; full-length ORF, Drosophila codon-optimized synthetic gene (pUAST.attB, locus 51C); expressed in Drosophila at1 OSNs in place of DmelOR67d, with endogenous fly Orco and GCaMP6m; same length as the other OR11
The experiment is described as above. Type of experiment: cell-based, Apis florea. Conditions: agonist; airborne odorant, unit is dose loaded on filter paper, not a concentration; 1 s stimulus; solvent 2-propanol.

In experiment [2] the target is T3, AcerOR11. Put plainly: transcuticular GCaMP6m calcium imaging of Drosophila antenna, single-dose screen. Type of experiment: cell-based. Conditions: agonist; 100 μg on filter paper; 1 s stimulus; solvent 2-propanol.

With `CCC/C=C/C(=O)O` [trans-2-hexenoic acid], the figures for the EC50 in the experiment with AdorOR11, on AmelOR11 and on AcerOR11 [1] were 124.2 ± 9.58 µg, 239.2 ± 72.06 µg and 105.8 ± 9.62 µg, respectively.

Turning to `CC(=O)CCCCC/C=C/C(=O)O` [9-ODA, 9-oxo-(E)-2-decenoic acid], the EC50 was 173.4 ± 22.22 µg with AdorOR11, 175.8 ± 29.59 µg in the experiment on AflorOR11, 160.5 ± 28.46 µg on AmelOR11 and 174.8 ± 26.05 µg at AcerOR11 [1].

Consider `CCCC(=O)C(=O)O` [2-oxovaleric acid], for which the values for the EC50 in the experiment on AdorOR11, at AmelOR11 and at AcerOR11 [1] were 139.3 ± 28.55 µg, 84.26 ± 15.52 µg and 208.5 ± 39.57 µg, respectively.

As for `CC(=O)CCC=C(C)C` [6-methyl-5-hepten-2-one], at AcerOR11 [2], the “calcium response (ΔF/F0)” value is given as “AcerOR11 responded to a third secondary ligand: 6-methyl-5-hepten-2-one”.
